Values after ≈ are worked out from the molar mass of the structure shown.
How the values were obtained:
Type in all cases: functional
[1] = system: Staphylococcus aureus; experiment: microbe, parasite or virus in culture; settings: ATCC 25923
Description: Antibacterial activity against methicillin-sensitive Staphylococcus aureus ATCC 25923 by CLSI agar microdilution method

[2] = system: Streptococcus pneumoniae; experiment: Antibacterial activity against penicillin-intermediate Streptococcus pneumoniae ATCC 49619 by CLSI broth microdilution method
[3] = system: Staphylococcus epidermidis; experiment: Antibacterial activity against Staphylococcus epidermidis 26069 by CLSI agar microdilution method
[4] = system: Enterococcus faecalis; experiment: microbe, parasite or virus in culture; settings: ATCC 51299
[5] = system: Enterococcus faecium; experiment: Antibacterial activity against vancomycin-sensitive Enterococcus faecium ATCC 35667 by CLSI agar microdilution method
[6] = system: Streptococcus pneumoniae; experiment: Antibacterial activity against Streptococcus pneumoniae 31002 by CLSI agar microdilution method
[7] = system: Staphylococcus; experiment: Antibacterial activity against Staphylococcus albus 26101 by CLSI agar microdilution method
[8] = system: Streptococcus; experiment: Antibacterial activity against Streptococcus gamma 32206 by CLSI agar microdilution method
[9] = system: Staphylococcus aureus; experiment: Antibacterial activity against Staphylococcus aureus 26003 by CLSI agar microdilution method
[10] = system: Enterococcus faecalis; experiment: Antibacterial activity against vancomycin-resistant Enterococcus faecalis ATCC 51299 by CLSI agar microdilution method relative to vancomycin
[11] = system: Streptococcus pneumoniae; experiment: Antibacterial activity against penicillin-resistant Streptococcus pneumoniae MSPN 0003 by CLSI broth microdilution method
[12] = system: Enterococcus faecium; experiment: Antibacterial activity against vancomycin-sensitive Enterococcus faecium ATCC 35667 by CLSI agar microdilution method relative to LYV07ww01
[13] = system: Enterococcus faecium; experiment: Antibacterial activity against Enterococcus faecium 32220 by CLSI agar microdilution method
[14] = system: Enterococcus faecalis; experiment: microbe, parasite or virus in culture; settings: ATCC 29212
Description: Antibacterial activity against vancomycin-sensitive Enterococcus faecalis ATCC 29212 by CLSI agar microdilution method

[15] = system: Staphylococcus aureus; experiment: microbe, parasite or virus in culture; settings: ATCC 33591
Description: Antibacterial activity against methicillin-resistant Staphylococcus aureus ATCC 33591 by CLSI agar microdilution method

[16] = system: Enterococcus faecium; experiment: Antibacterial activity against vancomycin-resistant Enterococcus faecium MEFA 0039 by CLSI agar microdilution method
[17] = system: Enterococcus faecium; experiment: Antibacterial activity against vancomycin-resistant Enterococcus faecium MEFA 0039 by CLSI agar microdilution method relative to vancomycin

| Compound | MIC [1] | MIC [2] | MIC [3] | MIC [4] | MIC [5] | MIC [6] | MIC [7] | MIC [8] | MIC [9] | fold change (FC) [10] | MIC [11] | fold change (FC) [12] | MIC [13] | MIC [14] | MIC [15] | MIC [16] | fold change (FC) [17] |
| --- | --- | --- | --- | --- | --- | --- | --- | --- | --- | --- | --- | --- | --- | --- | --- | --- | --- |
| CN[C@H](CC(C)C)C(=O)N[C@H]1C(=O)N[C@@H](CC(N)=O)C(=O)N[C@H]2C(=O)N[C@H]3C(=O)N[C@H](C(=O)N[C@@H](C(=O)O)c4cc(O)cc(O)c4-c4cc3ccc4O)[C@H](O[C@H]3C[C@](C)(N)[C@H](O)[C@H](C)O3)c3ccc(c(Cl)c3)Oc3cc2cc(c3O[C@@H]2O[C@H](CO)[C@@H](O)[C@H](O)[C@H]2O[C@H]2C[C@](C)(NCc3ccc(C(C)C)cc3)[C@H](O)[C@H](C)O2)Oc2ccc(cc2Cl)[C@H]1O | 1 µg/mL (≈ 0.58 µM) | ≤ 0.031 µg/mL | 6.25 µg/mL (≈ 3.62 µM) | 0.5 µg/mL (≈ 0.29 µM) | ≤ 0.031 µg/mL | 0.78 µg/mL (≈ 0.452 µM) | 1.56 µg/mL (≈ 0.905 µM) | 1.56 µg/mL (≈ 0.905 µM) | 1.56 µg/mL (≈ 0.905 µM) | 4 | ≤ 0.031 µg/mL | 4 | 1.56 µg/mL (≈ 0.905 µM) | 0.5 µg/mL (≈ 0.29 µM) | 0.5 µg/mL (≈ 0.29 µM) | 2 µg/mL (≈ 1.16 µM) |  |
| CN[C@H](CC(C)C)C(=O)N[C@H]1C(=O)N[C@@H](CC(N)=O)C(=O)N[C@H]2C(=O)N[C@H]3C(=O)N[C@H](C(=O)N[C@@H](C(=O)O)c4cc(O)cc(O)c4-c4cc3ccc4O)[C@H](O[C@H]3C[C@](C)(N)[C@H](O)[C@H](C)O3)c3ccc(c(Cl)c3)Oc3cc2cc(c3O[C@@H]2O[C@H](CO)[C@@H](O)[C@H](O)[C@H]2O[C@H]2C[C@](C)(NCc3ccccc3Cl)[C@H](O)[C@H](C)O2)Oc2ccc(cc2Cl)[C@H]1O | 1 µg/mL (≈ 0.582 µM) | ≤ 0.031 µg/mL | 6.25 µg/mL (≈ 3.64 µM) | 0.5 µg/mL (≈ 0.291 µM) | 0.25 µg/mL (≈ 0.146 µM) | 0.78 µg/mL (≈ 0.454 µM) | 3.13 µg/mL (≈ 1.82 µM) | 1.56 µg/mL (≈ 0.909 µM) | 1.56 µg/mL (≈ 0.909 µM) | 4 | 0.125 µg/mL (≈ 0.0728 µM) |  | 1.56 µg/mL (≈ 0.909 µM) | 0.5 µg/mL (≈ 0.291 µM) | 0.5 µg/mL (≈ 0.291 µM) | 8 µg/mL (≈ 4.66 µM) | 4 |
| CN[C@H](CC(C)C)C(=O)N[C@H]1C(=O)N[C@@H](CC(N)=O)C(=O)N[C@H]2C(=O)N[C@H]3C(=O)N[C@H](C(=O)N[C@@H](C(=O)O)c4cc(O)cc(O)c4-c4cc3ccc4O)[C@H](O[C@H]3C[C@](C)(N)[C@H](O)[C@H](C)O3)c3ccc(c(Cl)c3)Oc3cc2cc(c3O[C@@H]2O[C@H](CO)[C@@H](O)[C@H](O)[C@H]2O[C@H]2C[C@](C)(NCc3ccc(Br)cc3)[C@H](O)[C@H](C)O2)Oc2ccc(cc2Cl)[C@H]1O | 1 µg/mL (≈ 0.568 µM) | ≤ 0.031 µg/mL | 6.25 µg/mL (≈ 3.55 µM) | 0.5 µg/mL (≈ 0.284 µM) | ≤ 0.031 µg/mL | 1.56 µg/mL (≈ 0.886 µM) | 1.56 µg/mL (≈ 0.886 µM) | 6.25 µg/mL (≈ 3.55 µM) | 1.56 µg/mL (≈ 0.886 µM) | 4 | ≤ 0.031 µg/mL | 4 | 1.56 µg/mL (≈ 0.886 µM) | 0.5 µg/mL (≈ 0.284 µM) | 0.5 µg/mL (≈ 0.284 µM) | 2 µg/mL (≈ 1.14 µM) |  |
| CCCCN[C@@]1(C)C[C@H](O[C@H]2[C@H](Oc3c4cc5cc3Oc3ccc(cc3Cl)[C@@H](O[C@H]3C[C@](C)(N)[C@H](O)[C@H](C)O3)[C@@H]3NC(=O)[C@H](NC(=O)[C@@H]5NC(=O)[C@H](CC(N)=O)NC(=O)[C@H](NC(=O)[C@@H](CC(C)C)NC)[C@H](O)c5ccc(c(Cl)c5)O4)c4ccc(O)c(c4)-c4c(O)cc(O)cc4[C@H](C(=O)O)NC3=O)O[C@H](CO)[C@@H](O)[C@@H]2O)O[C@@H](C)[C@H]1O | 0.5 µg/mL (≈ 0.303 µM) | 0.063 µg/mL (≈ 0.0382 µM) | > 25 µg/mL | 1 µg/mL (≈ 0.607 µM) | 0.25 µg/mL (≈ 0.152 µM) | 0.39 µg/mL (≈ 0.237 µM) | 1.56 µg/mL (≈ 0.946 µM) | 1.56 µg/mL (≈ 0.946 µM) | 0.78 µg/mL (≈ 0.473 µM) |  | 0.125 µg/mL (≈ 0.0758 µM) |  | > 25 µg/mL | 0.5 µg/mL (≈ 0.303 µM) | 0.5 µg/mL (≈ 0.303 µM) | 32 µg/mL (≈ 19.4 µM) |  |
